Results reported in patent US12291515B2, “Pyrrolidine derivative and use thereof” (Rushi Biotech (Hangzhou) Co., Ltd, priority 2021, dated 2025).
pIC50: −log10 of the molar value.

Legend:
Format in all cases: cell-based
[1] = system: Human pancreatic cancer cell CFPAC-1; experiment: CCK-8 cell proliferation assay, CFPAC-1; conditions: CFPAC-1 cells, CCK-8, 24 hrs with drug, OD 450 nm
Procedure, shortened: (§1)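 Cells seeded at 5×10^4 cells/ml (CFPAC-1) or 3.5×10^4 cells/ml (others), grown 24 h, then exposed to drug in medium for 24 h at 37° C, 5% CO2. Viability read by CCK-8 (2–3 h) at OD 450 nm; inhibition rate calculated against drug-free controls.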

[2] = system: Human lung adenocarcinoma cell A549; experiment: CCK-8 cell proliferation assay, A549; conditions: A549 cells, CCK-8, 24 hrs with drug, OD 450 nm
Procedure, shortened: as §1

[3] = system: Human esophageal cancer cell TE-1; experiment: CCK-8 cell proliferation assay, TE-1; conditions: TE-1 cells, CCK-8, 24 hrs with drug, OD 450 nm
Procedure, shortened: as §1

[4] = system: Human hepatoma cell HepG2; experiment: CCK-8 cell proliferation assay, HepG2; conditions: HepG2 cells, CCK-8, 24 hrs with drug, OD 450 nm
Procedure, shortened: as §1

[5] = system: Human multiple myeloma cell RPMI 8226; experiment: CCK-8 cell proliferation assay, RPMI8226; conditions: RPMI8226 cells, CCK-8, 24 hrs with drug, OD 450 nm
[6] = system: Human colon cancer cell HCT-116; experiment: CCK-8 cell proliferation assay, HCT116; conditions: HCT116 cells, CCK-8, 24 hrs with drug, OD 450 nm
Procedure, shortened: as §1

[7] = system: Human gastric cancer cell MKN45; experiment: CCK-8 cell proliferation assay, MKN-45; conditions: MKN-45 cells, CCK-8, 24 hrs with drug, OD 450 nm
Procedure, shortened: as §1

Which results are given for `O=C(NCCCCCCC1CCN(C(=O)c2cc3ccccc3[nH]2)C1)Nc1ccnc(F)c1` (centres unmarked) [BSS-TP123]?
pIC50 [1]: 7.23; pIC50 [2]: 7.20; pIC50 [3]: 7.19; pIC50 [4]: 7.23; pIC50 [5]: 7.49; pIC50 [6]: 7.24; pIC50 [7]: 7.16

With `O=C(NCCCCCCC1CCN(C(=O)c2cc3ccccc3o2)C1)Nc1ccnc(F)c1` (centres unmarked) [BSS-TP124] as the compound, how does the pIC50 [1] read?
The pIC50 was 7.38.

And the pIC50 [2]?
The pIC50 was 7.25.

And the pIC50 [3]?
The pIC50 was 7.09.

And the pIC50 [4]?
The pIC50 was 7.20.

What about the pIC50 [5] of the same compound?
The pIC50 was 7.41.

And the pIC50 [6]?
Its pIC50 is 7.14.

And the pIC50 [7]?
Its pIC50 is 7.19.

`COc1cccc(OC)c1C(=O)N1CCC(CCCCCCNC(=O)Nc2cc(F)nc(F)c2)C1` (centres unmarked) [BSS-TP125] was tested. Which pIC50 [1] did it give?
Its pIC50 is 7.33.

What about the pIC50 [2] of the same compound?
Its pIC50 is 7.34.

What about the pIC50 [3] of the same compound?
The pIC50 was 7.37.

What about the pIC50 [4] of the same compound?
The pIC50 was 7.28.

And the pIC50 [5]?
The pIC50 was 7.55.

What about the pIC50 [6] of the same compound?
Its pIC50 is 7.31.

What about the pIC50 [7] of the same compound?
The pIC50 was 7.24.

With `COc1cccc(OC)c1C(=O)N1CCC(CCCCCCCNC(=O)Nc2ccncc2)C1` (centres unmarked) [BSS-TP126, 1-(7-(1-(2,6-dimethoxybenzoyl)pyrrolidin-3-yl)heptyl)-2-(4-pyridinyl) urea] as the compound, how does the pIC50 [1] read?
The pIC50 was 7.28.

What about the pIC50 [2] of the same compound?
Its pIC50 is 7.26.

And the pIC50 [3]?
Its pIC50 is 7.06.

And the pIC50 [4]?
The pIC50 was 7.04.

What about the pIC50 [5] of the same compound?
The pIC50 was 7.48.

What about the pIC50 [6] of the same compound?
The pIC50 was 7.20.

What about the pIC50 [7] of the same compound?
Its pIC50 is 7.49.

How did the pIC50 [1] turn out when `COc1cccc(OC)c1C(=O)N1CCC(CCCCNC(=O)Nc2ccncc2)C1` (centres unmarked) [BSS-TP127, 1-(4-(1-(2,6-dimethoxybenzoyl)pyrrolidin-3-yl)butyl)-2-(4-pyridinyl) urea] was run?
Its pIC50 is 7.24.

What about the pIC50 [2] of the same compound?
Its pIC50 is 7.12.

What about the pIC50 [3] of the same compound?
Its pIC50 is 6.87.

What about the pIC50 [4] of the same compound?
Its pIC50 is 6.99.

What about the pIC50 [5] of the same compound?
Its pIC50 is 7.47.

And the pIC50 [6]?
Its pIC50 is 7.12.

And the pIC50 [7]?
The pIC50 was 6.96.

What does the source list for `O=C(NCCCCCCCC1CCN(C(=O)c2ccco2)C1)Nc1ccncc1` (centres unmarked) [BSS-TP128, 1-(7-(1-(furoyl)pyrrolidin-3-yl)heptyl)-2-(4-pyridinyl)urea]?
pIC50 [1]: 7.28; pIC50 [2]: 7.17; pIC50 [3]: 6.91; pIC50 [4]: 6.96; pIC50 [5]: 7.44; pIC50 [6]: 7.01; pIC50 [7]: 7.29

`O=C(NCCCCCCCC1CCN(C(=O)c2ccc[nH]2)C1)Nc1ccncc1` (centres unmarked) [BSS-TP129, 1-(7-(1-(2-pyrrolylformyl)pyrrolidin-3-yl)heptyl)-2-(4-pyridinyl)urea] was tested. Which pIC50 [1] did it give?
Its pIC50 is 7.55.

And the pIC50 [2]?
The pIC50 was 7.14.

What about the pIC50 [3] of the same compound?
Its pIC50 is 7.02.

And the pIC50 [4]?
Its pIC50 is 7.03.

What about the pIC50 [5] of the same compound?
The pIC50 was 7.64.

What about the pIC50 [6] of the same compound?
The pIC50 was 7.14.

What about the pIC50 [7] of the same compound?
Its pIC50 is 7.31.

With `COc1cccc(OC)c1C(=O)N1CCC(CCCCCCCNC(=O)Nc2ccnc(F)c2)C1` (centres unmarked) [BSS-TP130] as the compound, how does the pIC50 [1] read?
Its pIC50 is 7.37.

What about the pIC50 [2] of the same compound?
Its pIC50 is 7.25.

And the pIC50 [3]?
The pIC50 was 7.21.

And the pIC50 [4]?
The pIC50 was 7.26.

What about the pIC50 [5] of the same compound?
The pIC50 was 7.42.

What about the pIC50 [6] of the same compound?
Its pIC50 is 7.34.

And the pIC50 [7]?
Its pIC50 is 7.14.

`O=C(NCCCCCCCC1CCN(C(=O)c2ccccc2)C1)Nc1ccncc1` (centres unmarked) [BSS-TP131] was tested. Which pIC50 [1] did it give?
Its pIC50 is 7.44.

And the pIC50 [2]?
The pIC50 was 7.37.

What about the pIC50 [3] of the same compound?
The pIC50 was 7.16.

And the pIC50 [4]?
Its pIC50 is 7.17.

And the pIC50 [5]?
The pIC50 was 7.54.

And the pIC50 [6]?
The pIC50 was 7.12.

What about the pIC50 [7] of the same compound?
Its pIC50 is 7.33.

How did the pIC50 [1] turn out when `O=C(NCCCCCCCC1CCN(C(=O)c2ccccc2)C1)Nc1ccnc(F)c1` (centres unmarked) [BSS-TP132] was run?
The pIC50 was 7.52.

What about the pIC50 [2] of the same compound?
Its pIC50 is 7.29.

And the pIC50 [3]?
The pIC50 was 7.11.

And the pIC50 [4]?
The pIC50 was 7.21.

And the pIC50 [5]?
Its pIC50 is 7.47.

And the pIC50 [6]?
The pIC50 was 7.19.

And the pIC50 [7]?
Its pIC50 is 7.41.

With `O=C(/C=C/c1cccnc1)NCCCCC1CCN(C(=O)c2ccccc2)CC1` [FK866, reference compound] as the compound, how does the pIC50 [1] read?
Its pIC50 is 7.43.

What about the pIC50 [2] of the same compound?
Its pIC50 is 7.43.

And the pIC50 [3]?
The pIC50 was 6.95.

What about the pIC50 [4] of the same compound?
Its pIC50 is 7.00.

And the pIC50 [5]?
The pIC50 was 7.70.

What about the pIC50 [6] of the same compound?
The pIC50 was 7.04.

And the pIC50 [7]?
The pIC50 was 7.41.
